Assay results as given in US20250213639A1 (U.S. NUTRACEUTICALS, INC., d/b/a Valensa International, priority 2021, published 2025).

Experiments:
[1] = system: DHT; conditions: cited from earlier work
[2] = oral, guinea pigs, fur and skin; cited from earlier work
[3] = system: men with mild to moderate androgenic alopecia; conditions: 1 milligram per day, 24 months; cited from earlier work
[4] = target: T1, 5α-Reductase-1 (Homo sapiens, UniProt P18405); experiment: 5α-reductase inhibition by constituents of saw palmetto extract (FIGS. 2, 3), Type 1; type: biochemical
T1 sequence (P18405 1-259): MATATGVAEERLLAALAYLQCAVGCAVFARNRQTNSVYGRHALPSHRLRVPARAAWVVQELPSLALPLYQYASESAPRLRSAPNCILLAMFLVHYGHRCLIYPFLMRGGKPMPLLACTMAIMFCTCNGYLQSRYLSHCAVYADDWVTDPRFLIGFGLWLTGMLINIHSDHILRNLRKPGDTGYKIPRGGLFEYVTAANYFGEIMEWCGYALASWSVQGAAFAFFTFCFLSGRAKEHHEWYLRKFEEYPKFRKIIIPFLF

[5] = system: normal mice; conditions: after about 20 days, normal shaved mice; cited from earlier work
[6] = target: T2, 5α-Reductase-2 (Homo sapiens, UniProt P31213); experiment: 5α-reductase inhibition by constituents of saw palmetto extract (FIGS. 2, 3), Type 2; type: biochemical
T2 sequence (P31213 1-254): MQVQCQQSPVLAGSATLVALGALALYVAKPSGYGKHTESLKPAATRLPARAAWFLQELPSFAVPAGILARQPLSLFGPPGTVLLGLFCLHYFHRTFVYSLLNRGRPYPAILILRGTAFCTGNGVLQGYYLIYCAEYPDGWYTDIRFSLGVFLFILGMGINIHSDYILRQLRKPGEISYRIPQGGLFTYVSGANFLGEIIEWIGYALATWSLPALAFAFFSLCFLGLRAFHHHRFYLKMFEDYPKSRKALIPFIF

**Q.** For C[C@]12C=CC(=O)N[C@@H]1CC[C@@H]1[C@@H]2CC[C@]2(C)[C@@H](C(=O)Nc3cc(C(F)(F)F)ccc3C(F)(F)F)CC[C@@H]12 [Dutasteride], which “reduction of DHT levels in the entire body” value ([1]; in vivo) is on record?
**A.** Its value is “more than 99%”.

**Q.** For CC/C=C\C/C=C\C/C=C\CCCCCCCC(=O)O [Linolenic acid], which “share of that lipid found in the free fatty acid form” value [2] is on record?
**A.** The value was “Over 70%”.

**Q.** With CC(C)(C)NC(=O)[C@H]1CC[C@H]2[C@@H]3CC[C@H]4NC(=O)C=C[C@]4(C)[C@H]3CC[C@]12C [finasteride] as the compound, how does the “men who noted an improvement” value [3] read?
**A.** Its value is 68%.

**Q.** And the “decrease of the production of DHT” value ([1]; in some formulations)?
**A.** Its value is “about 70%”.

**Q.** With CCCCC/C=C\C/C=C\CCCCCCCC(=O)O [linoleic acid] as the compound, how does the “effectiveness for 5α-Reductase-1” value [4] read?
**A.** The value was “beneficial for both”.

**Q.** What about the hair growth [5] of the same compound?
**A.** Its hair growth is “about 100%”.

**Q.** What does the source list for CCCCCCCC/C=C\CCCCCCCC(=O)O [oleic acid]?
**A.** effectiveness for 5α-Reductase-1 [4]: especially effective; effectiveness for 5α-Reductase-2 [6]: not as much
